± gives the expanded uncertainty stated by the source.
Compound: CCCCn1cc[n+](C)c1.Cc1ccc(S(=O)(=O)[O-])cc1 [1-butyl-3-methylimidazolium tosylate]
- Triple point temperature (Crystal 1, Adiabatic calorimetry): 343.8 ± 0.67 K
- Triple point temperature (Crystal 2, Adiabatic calorimetry): 152 ± 1 K
- Triple point temperature (Metastable crystal): 342.48 ± 0.2 K
